Tests used:
[1] = pKa measurement of unformulated amine lipid (fluorescence, method of Jayaraman et al.); type: physicochemical; details: 100 μM in 0.1 M phosphate buffer, pH 2.0-12.0
Method: The pKa of each amine lipid was determined according to the method in Jayaraman, et al. (Angewandte Chemie, 2012) with the following adaptations. […] Lipid was diluted to 100 μM in 0.1 M phosphate buffer (Boston Bioproducts) where the pH ranged from 2.0-12.0. Fluorescence intensity was measured using excitation and emission wavelengths of 321 nm and 448 nm.

[2] = RNA encapsulation efficiency of LNPs (Ribogreen fluorescence assay); type: physicochemical; details: LNP, sg:mRNA 1:1, N/P about 6, amine lipid/DSPC/cholesterol/PEG-2k-DMG 50/9/38/3; Table 2, Experiments 2-20
How it was run: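 Encapsulation efficiency is (Total RNA − Free RNA)/Total RNA. Free RNA was quantified by RiboGreen fluorescence (488/525 nm, ~10 min, RT, dark) in plain TE buffer; total RNA was quantified after LNP lysis with 0.2% Triton X-100, both against RNA standard curves.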

[3] = Dynamic light scattering of LNPs: Z-average diameter, number average diameter, PDI; type: physicochemical; details: LNP, sg:mRNA 1:1, N/P about 6, 50/9/38/3; Table 2, Experiments 2-20
How it was run: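 Values reported are the Z-average (intensity-weighted mean size), the number-average diameter and the PDI (spread of sizes, 0 = fully uniform). All three came from dynamic light scattering of LNP preparations after dilution in PBS.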

Transthyretin (TTR) = assay: Serum TTR ELISA in mice after LNP dosing; type: in vivo, CD-1 female mice; details: guide G282 experiments; for Serum TTR % TSS: mouse serum TTR relative to TSS control; for Serum TTR: mouse serum, ELISA
Method: CD-1 female mice ranging from 6-10 weeks of age were used in each study. Animals were weighed and grouped according to body weight for preparing dosing solutions based on group average weight. LNPs were dosed via the lateral tail vein in a volume of 0.2 mL per animal (approximately 10 mL per kilogram body weight). The animals were periodically observed for adverse effects for at least 24 hours post dose. For studies measuring in vivo editing in liver, CD-1 female mice were dosed at 0.1 mg/kg unless otherwise noted. Animals were euthanized at 6 or 7 days by ex sanguination via cardiac puncture under isoflurane anesthesia. Liver tissue was collected from each animal for DNA extraction and analysis. Blood was collected into serum separator tubes or into tubes containing buffered sodium citrate for plasma as described herein. Cohorts of mice were measured for editing by Next-Generation Sequencing (NGS).
Blood was collected and the serum was isolated as indicated. The total mouse TTR serum levels were determined using a Mouse Prealbumin (Transthyretin) ELISA Kit (Aviva Systems Biology, Cat. OKIA00111). Briefly, sera were serial diluted with kit sample diluent to a final dilution of 10,000-fold for 0.1 mg/kg dose and final dilutions of 10,000-fold and of 2,500-fold for 0.3 mg/kg. This diluted sample was then added to the ELISA plates and the assay was carried out according to the manufacturer's directions.

Row | SMILES | pKa [1] | Encapsulation (%) [2] [%] | Number mean (nm) [3] [nm] | PDI [3] | Z-avg (nm) [3] [nm] | Serum TTR % TSS (Transthyretin (TTR)) [%] | Serum TTR (Transthyretin (TTR)) [µg/mL]
1 | CCCCC/C=C\C/C=C\CCCCCCCC(=O)OCC(COC(=O)CCCCN(C)C)COC(=O)CCC(OCCCCCCCC)OCCCCCCCC (stereo not shown) [Compound 25] | 7.65 | 99 | 61 | 0.080 | 87 | 112 | 1013
2 | CCCCC/C=C\C/C=C\CCCCCCCC(=O)OCC(COC(=O)CCCN(C)C)COC(=O)CCC(OCCCCCCCC)OCCCCCCCC (stereo not shown) [Compound 26, 3-((4,4-bis(octyloxy)butanoyl)oxy)-2-(((4-(dimethylamino)butanoyl)oxy)methyl)propyl (9Z,12Z)-octadeca-9,12-dienoate] | 7.39 | 98 | 73 | 0.000 | 88 | 112 | 1008
3 | CCCCC/C=C\C/C=C\CCCCCCCC(=O)OCC(COC(=O)CCC(OCCCCCCCC)OCCCCCCCC)COC(=O)CCN(CC)CC (stereo not shown) [Compound 27, 3-((4,4-bis(octyloxy)butanoyl)oxy)-2-(((3-(diethylamino)propanoyl)oxy)methyl)propyl (9Z,12Z)-octadeca-9,12-dienoate] | 5.35 | 97 | 45 | 0.100 | 66 | 93 | 841
4 | CCCCC/C=C\C/C=C\CCCCCCCC(=O)OCC(COC(=O)CCCCN(CC)CC)COC(=O)CCC(OCCCCCCCC)OCCCCCCCC (stereo not shown) [Compound 28, 3-((4,4-bis(octyloxy)butanoyl)oxy)-2-(((5-(diethylamino)pentanoyl)oxy)methyl)propyl (9Z,12Z)-octadeca-9,12-dienoate] | 7.3 | 98 | 68 | 0.010 | 83 | 73 | 661
5 | CCCCC/C=C\C/C=C\CCCCCCCC(=O)OCC(COC(=O)CCC(OCCCCCCCC)OCCCCCCCC)COC(=O)C1(C)CCN(C)CC1 (stereo not shown) [Compound 32, 3-((4,4-bis(octyloxy)butanoyl)oxy)-2-((((9Z,12Z)-octadeca-9,12-dienoyl)oxy)methyl)propyl 1,4-dimethylpiperidine-4-carboxylate] | 7.32 | 99 | 61 | 0.040 | 77 | 43 | 388
6 | CCCCC/C=C\C/C=C\CCCCCCCC(=O)OCC(COC(=O)CCC(OCCCCCCCC)OCCCCCCCC)COC(=O)NC1CCCN(CC)C1 (stereo not shown) [Compound 36, 3-((4,4-bis(octyloxy)butanoyl)oxy)-2-((((1-ethylpiperidin-3-yl)carbamoyl)oxy)methyl)propyl (9Z,12Z)-octadeca-9,12-dienoate] | 6.58 | 98 | 59.48 | 0.024 | 73.71 | 99 | 795
7 | CCCCC/C=C\C/C=C\CCCCCCCC(=O)OCC(COC(=O)CCC(OCCCCCCCC)OCCCCCCCC)COC(=O)NC1CCN(CC)CC1 (stereo not shown) [Compound 37, 3-((4,4-bis(octyloxy)butanoyl)oxy)-2-((((1-ethylpiperidin-4-yl)carbamoyl)oxy)methyl)propyl (9Z,12Z)-octadeca-9,12-dienoate] | 7.84 | 100 | 44.73 | 0.091 | 65.01 | 77 | 617
8 | CCCCC/C=C\C/C=C\CCCCCCCC(=O)OCC(COC(=O)CCC(OCCCCCCCC)OCCCCCCCC)COC(=O)NCC1CCCCN1CC (stereo not shown) [Compound 38, 3-((4,4-bis(octyloxy)butanoyl)oxy)-2-(((((1-ethylpiperidin-2-yl)methyl)carbamoyl)oxy)methyl)propyl (9Z,12Z)-octadeca-9,12-dienoate] | 7.17 | 96 | 74.58 | 0.019 | 91.5 | 60 | 481
9 | CCCCC/C=C\C/C=C\CCCCCCCC(=O)OCC(COC(=O)CCC(OCCCCCCCC)OCCCCCCCC)COC(=O)NCC1CCCN1C (stereo not shown) [Compound 39, 3-((4,4-bis(octyloxy)butanoyl)oxy)-2-(((((1-methylpyrrolidin-2-yl)methyl)carbamoyl)oxy)methyl)propyl (9Z,12Z)-octadeca-9,12-dienoate] | 7.34 | 97 | 64.79 | 0.024 | 79.81 | 82 | 656
10 | CCCCC/C=C\C/C=C\CCCCCCCC(=O)OCC(COC(=O)CCC(OCCCCCCCC)OCCCCCCCC)COC(=O)NC1CCN(CC)C1 (stereo not shown) [Compound 41, 3-((4,4-bis(octyloxy)butanoyl)oxy)-2-((((1-ethylpyrrolidin-3-yl)carbamoyl)oxy)methyl)propyl (9Z,12Z)-octadeca-9,12-dienoate] | 7.82 | 98 | 54.1 | 0.074 | 74.83 | 95 | 758
11 | CCCCC/C=C\C/C=C\CCCCCCCC(=O)OCC(COC(=O)CCC(OCCCCCCCC)OCCCCCCCC)COC(=O)NC1CCCN(C)C1 (stereo not shown) [Compound 42, 3-((4,4-bis(octyloxy)butanoyl)oxy)-2-((((1-methylpiperidin-3-yl)carbamoyl)oxy)methyl)propyl (9Z,12Z)-octadeca-9,12-dienoate] | 6.9 | 99 | 58.66 | 0.027 | 74.03 | 81 | 902
12 | CCCCC/C=C\C/C=C\CCCCCCCC(=O)OCC(COC(=O)CCC(OCCCCCCCC)OCCCCCCCC)COC(=O)NC(C)CN(CC)CC (stereo not shown) [Compound 44, 3-((4,4-bis(octyloxy)butanoyl)oxy)-2-((((1-(diethylamino)propan-2-yl)carbamoyl)oxy)methyl)propyl (9Z,12Z)-octadeca-9,12-dienoate] | 6.1 | 91 | 64.78 | 0.025 | 81.19 | 82 | 910
13 | CCCCC/C=C\C/C=C\CCCCCCCC(=O)OCC(COC(=O)CCC(OCCCCCCCC)OCCCCCCCC)COC(=O)NC(C)CN(C)C (stereo not shown) [Compound 45, 3-((4,4-bis(octyloxy)butanoyl)oxy)-2-((((1-(dimethylamino)propan-2-yl)carbamoyl)oxy)methyl)propyl (9Z,12Z)-octadeca-9,12-dienoate] | 7.3 | 98 | 69.23 | 0.007 | 82.93 | 98 | 1096

Reference: patent publication US20220402862A1 (Intellia Therapeutics, Inc., priority 2019, published 2022)
